Peptide text beside a SMILES is read from it. * marks the point of attachment. Cbz = O=C(OCc1ccccc1)*; CH2F = FC*
How the values were obtained:
[1] = test system: Mel-hEGFR-eYFP in microsomes of the insect cell lysate; experiment: Multiple (repetitive) synthesis of Mel-hEGFR-eYFP into microsomes of the insect cell lysate; type: biochemical, Spodoptera frugiperda
Experimental: A suitable method for increasing the concentration of a particular target protein in the lumen or the membrane of the insect cell vesicles lies in carrying out multiple syntheses. This procedure leads to a longer dwell time of the de novo synthesized target proteins in the translation mixture. For successful conversion, it is therefore absolutely necessary to ensure the stability of the target proteins even after relatively long incubation times (>1.5 h) in the translation mixture. For this purpose, the caspase inhibitor Z-VAD-FMK was added to the translation reaction. The multiple synthesis of the target protein was carried out as follows: the microsomes of the translation mixture incubated under standard conditions (27° C., 1.5 h) were pelleted with a centrifugation step at 16,000 g and resuspended in a new translation-active cell lysate without microsomes and incubated again for 1.5 h at 27° C. in the presence of the caspase inhibitor Z-VAD-FMK. In the present experimental example, the synthesis was repeated four times. Following each synthesis step, the yield of radioactively labeled protein in the translation mixture, the supernatant and the vesicular fraction were determined. In addition, 5 μl of the translation mix were precipitated in acetone and subsequently separated out electrophoretically. […] The addition of the caspase inhibitor to the translation reaction enables a synthesis of the target protein over a total of 6 h.

[2] = test system: cell-free eukaryotic translation system on the basis of a cell extract from Spodoptera frugiperda (Sf21) insect cells; experiment: Cell-free expression of Mel-Hb-EGF-eYFP, protein quantity in translation mixture and vesicular fraction; type: biochemical
Experimental: The three proteins were each expressed in the batch and dialysis systems without (−) and with (+) the addition of the caspase inhibitor (CI) in the presence of ^14C-leucine for 48 h (27° C.; 600 rpm, Eppendorf Thermomixer Comfort) and analyzed as in example 1. […] The expression of each of the three membrane proteins (ETB, 49.3 kDa; Hb-EGF, 51 kDa; bacteriorhodopsin, 26.9 kDa) was able to be increased in the dialysis system (comparison of the dialysis batches +CI and −CI) with the addition of the caspase inhibitor by approximately 100% (FIG. 2).
Here, the intention was to investigate whether the increase in the total protein quantity is also associated with an increase in the quantity of membrane protein translocated and integrated into the lipid layer of the vesicles. For this purpose, the translation mixtures of Mel-Hg-EGF-eYFP were separated by means of a centrifuging step into the supernatant fluid (SN) and the vesicular fraction (VF). Aliquots (5 μl) of these samples were used for determining the quantity of de novo synthesized protein or were investigated with regard to their fluorescence properties (FIG. 4).
FIG. 4A: The synthesis of Mel-Hb-EGF-eYFP was carried out in the batch (left) and dialysis system (right) in the absence (−) and in the presence (+) of DTT with the addition of the caspase inhibitor (Z-VAD-FMK) over 48 h at 27° C. and 600 rpm. Following the synthesis, the mixtures were separated by means of a centrifuging step into the supernatant fluid (SN) and the vesicular fraction (VF). For analysis of the fluorescence intensity of the samples, aliquots of the fractions (5 μl) were each diluted in 25 μl PBS and 25 μl of this mixture was pipetted to each cavity of the Ibidi slide and measured. Excitation of the samples was carried out at 488 nm with a phosphorimager (Typhoon TRIO+ Imager, GE Healthcare) and the emission measured at 526 nm.

[3] = from synthesis steps 1 to 4, in presence of Z-VAD-FMK

COC(=O)C[C@H](NC(=O)[C@H](C)NC(=O)[C@@H](NC(=O)OCc1ccccc1)C(C)C)C(=O)CF [Z-VAD-FMK, benzyloxycarbonyl-Val-Ala-Asp-[O-methyl]-fluoromethylketone] (Cbz-Val-Ala-Asp(OMe)-CH2F)
total time over which synthesis of the target protein is enabled ([1]; four repeated syntheses of 1.5 h at 27° C. in presence of caspase inhibitor): 6 h | increase of yield of target protein, total protein in the translation mixture [1, 3]: 110% | increase of yield of target protein, vesicular fraction [1, 3]: 180% | total protein quantity of Mel-Hb-EGF-eYFP ([2]; batch 48 h +CI): 12.1 µg/mL | Mel-Hb-EGF-eYFP in the vesicular fraction of the lysate ([2]; batch 48 h −DTT +CI): 6.5 µg/mL | total protein quantity of Mel-Hb-EGF-eYFP ([2]; dialysis 48 h +CI): 47.6 µg/mL | increase in total protein quantity of Mel-Hb-EGF-eYFP ([2]; dialysis 48 h +CI vs batch 48 h +CI): 300% | increase in total protein quantity of Mel-Hb-EGF-eYFP ([2]; dialysis 48 h +CI vs dialysis 48 h −CI): 130% | Mel-Hb-EGF-eYFP in the vesicular fraction of the lysate ([2]; dialysis 48 h −DTT +CI): 31.4 µg/mL
